From ChEMBL document CHEMBL4038327, “Inhibitory Kappa B Kinase α (IKKα) Inhibitors That Recapitulate Their Selectivity in Cells against Isoform-Related Biomarkers” (J Med Chem, 2017)

Target: T1, Inhibitor of nuclear factor kappa-B kinase subunit alpha (Homo sapiens, UniProt O15111)
T1 sequence (O15111 whole entry): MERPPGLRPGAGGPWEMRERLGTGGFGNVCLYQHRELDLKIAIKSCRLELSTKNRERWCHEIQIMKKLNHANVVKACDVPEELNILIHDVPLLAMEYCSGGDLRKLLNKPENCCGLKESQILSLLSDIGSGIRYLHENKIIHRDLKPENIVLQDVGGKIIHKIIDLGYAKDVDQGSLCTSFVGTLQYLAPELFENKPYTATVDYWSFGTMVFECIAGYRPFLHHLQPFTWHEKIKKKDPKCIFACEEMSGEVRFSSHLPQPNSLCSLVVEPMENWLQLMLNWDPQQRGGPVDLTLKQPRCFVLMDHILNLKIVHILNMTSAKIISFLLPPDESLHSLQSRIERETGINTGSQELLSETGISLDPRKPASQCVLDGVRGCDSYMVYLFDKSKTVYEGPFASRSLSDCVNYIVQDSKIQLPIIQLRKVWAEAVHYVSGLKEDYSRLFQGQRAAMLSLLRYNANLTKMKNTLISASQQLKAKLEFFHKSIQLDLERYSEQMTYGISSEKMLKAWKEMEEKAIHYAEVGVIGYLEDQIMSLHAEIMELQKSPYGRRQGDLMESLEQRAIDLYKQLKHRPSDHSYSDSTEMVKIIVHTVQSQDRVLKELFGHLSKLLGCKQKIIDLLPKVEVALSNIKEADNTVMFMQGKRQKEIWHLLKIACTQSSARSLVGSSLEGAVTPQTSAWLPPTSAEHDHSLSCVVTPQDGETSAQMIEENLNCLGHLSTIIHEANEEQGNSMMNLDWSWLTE
Test: Inhibition of recombinant human N-terminal GST-tagged IKKalpha (1 to 745 residues) expressed in baculovirus expression system using biotinylated IkBalpha as substrate after 60 mins by DELFIA

Ki: 80 nM
SMILES: N#Cc1c[nH]c2nc(N)nc(-c3ccc(S(N)(=O)=O)cc3)c12
